Values after ≈ are worked out from the molar mass of the structure shown. Like-named read-outs stand apart in the source and are kept apart here. Marks after values point to notes of the source that are not given here. One block for each compound: values may come before it.
Legend:
Staphylococcus aureus = assay: MIC and MBC test, S. aureus; type: cell-based
Procedure: (§1) Using Muller Hinton agar medium, the antibacterial activity was evaluated by using 24 h cultures of Escherichia coli, Staphylococcus aureus, and Candida albicans. E. coli and S. aureus were incubated in 1% Mueller Hinton Broth (MHB) liquid medium at 37 °C for 24 h; C. albicans was incubated in Sabouraud Dextrose Broth (SDB) at 30 °C for 48 h. MIC (Minimum Inhibitory Concentration) and MBC (Minimum Bactericidal Concentration) tests were performed to determine antimicrobial activity. This stage was carried out in a sterile cabinet.
(§2) The density of microorganisms in fresh cultures was adjusted according to the MacFarland 0.5 scale. For that, the microorganisms were centrifuged at 4000 rpm for 20 min. The supernatant was poured off, and the pellet was washed with 1 mL of 0.9% NaCl solution (physiological saline). The centrifugation was then repeated. The pellet was dissolved again with saline solution and adjusted to 0.5 MacFarland. In the experiment performed in a sterile 96-well plate, compound 4o was diluted ½ with DMSO to prepare a stock solution. In the first, 100 µl of medium and 100 µl of compound 4o as initial dilutions. Dilution was performed seven times at a ratio of ½. Then, 5 µl of fresh microorganism cultures prepared as MacFarland 0.5 were inoculated. The control group was prepared as 100 µl medium, 100 µl distilled water, and 5 µl microorganisms. The plates were incubated at 37 °C and 30 °C for 24 h.
(§3) After incubation, 10 µl of the sample was taken, dropped onto the respective media, and incubated for 24 h at appropriate temperatures to clearly distinguish the residues left by the compound 4o and the growth of microorganisms. Mueller Hinton Agar (MHA) was used for E. coli and S. aureus, and Potato Dextrose Agar (PDA) was used for C. albicans. After incubation, MIC and MBC values were determined. The first well with a significant decrease in growth was considered as MIC, and the first well with no growth was considered as MBC [59, 60].

Candida albicans = assay: MIC and MBC test, C. albicans; type: cell-based
Procedure: as §1, §2, §3

[1] = DPPH radical scavenging assay; type: biochemical; settings: 30 min, 517 nm
Procedure: To estimate the Carbazole derivatives' antioxidant potential, a solution of each compound (1 mM/mL) in methanol was serially diluted with methanol to obtain a concentration of 1, 2, 5, 10, 20, 50, and 100 µM/mL. Then, DPPH (2,2-diphenyl-1-picrylhydrazyl) reagent (Sigma, USA) was dissolved in 0.002% w/v methanol and mixed with the previously prepared working concentrations in a 1:1 ratio. The same procedures were repeated for Trolox (Sigma-Aldrich, Denmark), which was used as a positive control. All of the solutions were kept in the dark chamber for 30 min at an ordinary temperature. Then, their absorbance values were measured at a wavelength of 517 nm utilizing a UV–visible spectrophotometer. The DPPH inhibition potentials by Carbazole derivatives and Trolox were determined employing the following equation: DPPH inhibition(\%)=abs(blank)-abs(sample)/abs(blank)∗100\% where absblank is the blank absorbance and abssample is the absorbance of the samples [58]. The antioxidant half-maximal inhibitory concentration (IC50) of the synthesized carbazole derivatives and Trolox were assessed by using an online tool “Quest Graph™ IC50 Calculator.” AAT Bioquest, Inc., 25 May. 2023, https://www.aatbio.com/tools/ic50-calculator.

L929 normal cell lines = assay: MTT cell viability, L929 normal cell line; type: cell-based; settings: Mus musculus, 48 h
Procedure: (§4) Cells (MCF-7 and L929) were incubated in 75 cm^2 sterile flasks with 10% FBS, 100 U/mL penicillin, and 100 µg/mL streptomycin. The cells were grown at 37 ^○C in 5% CO2, and MTT was used to screen the viability of the cells. Cells were seeded at a density of 10^4 cells per well. The cells were then cultured for 24 h in 100 µl of DMEM complete medium. After pretreatment with different concentrations of the compounds for 48 h, 10 µl of 5 mg/mL MTT solution was added to each well and incubated for 4 h at 37 ^○C, and 100 µl of DMSO was used in each well to dissolve the blue formazan crystals. Then, the absorbance was measured at 570 nm. The cell viability percentages of compound 4o against MCF-7 cancer cell lines and L929 normal cell lines were presented in Fig. 2 in comparison with doxorubicin anticancer agent.

Escherichia coli = assay: MIC and MBC test, E. coli; type: cell-based
Procedure: as §1, §2, §3

MCF-7 cells [2] = assay: Annexin-V-FITC/PI apoptosis assay by flow cytometry; type: cell-based; settings: for total dead cells: MCF-7, sum of pre-apoptotic, post-apoptotic and necrosis
Procedure: FITC Annexin-V apoptosis detection kit with PI, ApopNexinTM FITC (APT750, Merk, Germany) was used for apoptosis assay. MCF-7 cells were seeded into a 6-well plate (1 × 10^6 cells per well). Then, the cells were incubated with the compounds at the cytotoxic concentration by employing a cell viability assay. Apoptotic cells were cultured with the compounds, the medium was removed after incubation, and the cells were washed twice with 5 mL of pre-chilled phosphate-buffered saline. Cells washed with PBS were lifted with Trypsin–EDTA and centrifuged at 400 rpm for 5 min. The resulting cells were each treated with 1 mL of cold 1-X Binding Buffer (Sigma Aldrich, USA). Then, 200 μL of the mixture was taken and placed in a flow cytometry tube, and the other part containing cells was kept on ice. First, 3 µl of ApopNexinTM FITC and 2 µl of 100X propidium iodide (PI) (P4170, Sigma Aldrich, USA) were added to the solution taken into the sample tube and mixed. The resulting mixture was incubated for 15 min in the dark at room temperature. At the end of the incubation, the samples were measured in flow cytometry (Beckman Coulter Cytoflex) and data were obtained.

MCF-7 cell line = assay: MTT cell viability, MCF-7 cancer cell line; type: cell-based; settings: for IC50: Homo sapiens, MCF7, MTT, 48 h, read-out: IC50 values Carbazole Derivatives Effect on MCF-7 Cell Line; for selective index (SI): L929 vs MCF-7
Procedure: MCF-7 cancer cell lines were cultured at Dulbecco’s Modified Eagle Medium High Glucose (DMEM) (EuroClone, Via Figino, Italy); fetal bovine serum (FBS) and MTT (3-(4,5-Dimethylthiazol-2-yl)-2,5-Diphenyl Tetrazolium Bromide) were provided by Sigma-Aldrich (Darmstadt, Germany); ApopNexin Annexin-V-FITC with PI Apoptosis Kit was obtained from Merck (Darmstadt, Germany); Total RNA Isolation Kit was provided by Analytic Jena (Jena, Germany), SensiFast cDNA Synthesis Kit was provided by Meridian Bioscience (Cincinati, USA), SybrGreen Master Mix was obtained from EuroClone (Via Figino, Italy).
as §4

MCF-7 cells [3] = assay: Cell cycle analysis by flow cytometry; type: cell-based
Description: The manufacturer protocol (Sigma-Aldrich Mak344 Cell Cycle Analysis Kit) was used to perform cell cycle experiments and analyzed by flow cytometry (Beckman Coulter Cytoflex).

[4] = parameters: method as in PMID 37328860; settings: previous preliminary work; read-out: Antioxidant IC50 against DPPH; cited from earlier work
HeLa cancer cell lines = test system: HeLa cancer cell lines; parameters: method as in PMID 37328860; settings: previous preliminary work; read-out: anticancer IC50 HeLa; cited from earlier work
MCF-7 cancer cell lines = test system: MCF-7 cancer cell lines; parameters: method as in PMID 37328860; settings: previous preliminary work; read-out: anticancer IC50 MCF-7; cited from earlier work

Structure (SMILES): O=C(Cn1c2ccccc2c2ccccc21)NNC(=S)NCCc1ccccc1 [Compound 4s, 2-(2-(9H-carbazol-9-yl)acetyl)-N-phenethylhydrazine-1-carbothioamide]
melting point: 170 to 172 °C | IC50 [1]: 3.05 ± 1.75 µM | IC50 (MCF-7 cell line): > 20 µM

Structure (SMILES): C=CCNC(=S)NNC(=O)Cn1c2ccccc2c2ccccc21 [Compound 4y, 2-(2-(9H-carbazol-9-yl)acetyl)-N-allylhydrazine-1-carbothioamide]
melting point: 205 to 207 °C | IC50 [1]: 0.38 ± 0.05 µM | IC50 (MCF-7 cell line): > 20 µM

Structure (SMILES): COc1ccc(S(=O)(=O)NNC(=O)Cn2c3ccccc3c3ccccc32)cc1 [St.1]
IC50 [4]: 1.05 µM

Structure (SMILES): O=C(Cn1c2ccccc2c2ccccc21)N/N=C1\SCC(=O)N1c1ccc(Cl)cc1 [St.2]
IC50 [4]: 5.15 µM | IC50 (HeLa cancer cell lines): 7.59 µM | IC50 (MCF-7 cancer cell lines): 18.4 µM

Structure (SMILES): O=C(c1ccc(F)cc1)n1nc(Cn2c3ccccc3c3ccccc32)oc1=O [St.3]
IC50 (HeLa cancer cell lines): 17.2 µM | IC50 (MCF-7 cancer cell lines): 6.44 µM

Structure (SMILES): OC(Cn1cncn1)(Cn1cncn1)c1ccc(F)cc1F [fluconazole, reference compound]
MBC (Candida albicans): 16.3 µM (≈ 4.99 µg/mL)

Further lines, with some results ahead:

MIC (Staphylococcus aureus; Staphylococcus aureus): 1.56 µM (≈ 0.628 µg/mL) | MIC (Candida albicans): 0.39 µM (≈ 0.157 µg/mL) | IC50 [1]: 158 ± 2.54 µM | MIC (Escherichia coli; Escherichia coli, read-out: MIC): 1.56 µM (≈ 0.628 µg/mL) | IC50 (MCF-7 cell line): 2.02 ± 0.04 µM
Structure (SMILES): O=C(Cn1c2ccccc2c2ccccc21)NNC(=S)NC(=O)c1ccccc1 [Compound 4o, N-(2-(2-(9H-carbazol-9-yl)acetyl)hydrazine-1-carbonothioyl)benzamide]
MBC (Staphylococcus aureus; Staphylococcus aureus, read-out: MBC): 1.56 µM (≈ 0.628 µg/mL) | MBC (Candida albicans): 0.39 µM (≈ 0.157 µg/mL) | IC50 (L929 normal cell lines): 37.8 µM | MBC (Escherichia coli; Escherichia coli, read-out: MBC): 1.56 µM (≈ 0.628 µg/mL) | induction of apoptosis (MCF-7 cells [2]; MCF-7): drives MCF-7 cells to apoptosis | necrosis cell population (MCF-7 cells [2]; MCF-7, cytotoxic concentration): 3.69% | post-apoptotic cell population (MCF-7 cells [2]; MCF-7, cytotoxic concentration): 4.33% | pre-apoptotic cell population (MCF-7 cells [2]; MCF-7, cytotoxic concentration): 8.20% | viable cell population (MCF-7 cells [2]; MCF-7, cytotoxic concentration): 83.78% | total dead cells (MCF-7 cells [2]): 16.22% | selective index (SI) (MCF-7 cell line): 18.70 | cell cycle arrest (MCF-7 cells [3]): cell cycle arrest in the MCF-7 cell line in the G2/M phase

melting point: 186 to 188 °C | IC50 [1]: 15.9 ± 2.07 µM | IC50 (MCF-7 cell line): > 20 µM
Structure (SMILES): CC(C)NC(=S)NNC(=O)Cn1c2ccccc2c2ccccc21 [Compound 4t, 2-(2-(9H-carbazol-9-yl)acetyl)-N-isopropylhydrazine-1-carbothioamide]

melting point: 173 to 175 °C | IC50 [1]: 21.6 ± 0.87 µM | IC50 (MCF-7 cell line): > 20 µM
Structure (SMILES): CNC(=S)NNC(=O)Cn1c2ccccc2c2ccccc21 [Compound 4z, 2-(2-(9H-carbazol-9-yl)acetyl)-N-methylhydrazine-1-carbothioamide]

IC50 (MCF-7 cell line): 5.06 ± 0.21 µM
Structure (SMILES): COc1cccc2c1C(=O)c1c(O)c3c(c(O)c1C2=O)C[C@@](O)(C(=O)CO)C[C@@H]3O[C@H]1C[C@H](N)[C@H](O)[C@H](C)O1 [Doxorubicin, reference compound]
IC50 (L929 normal cell lines): 19.3 µM | total dead cells (MCF-7 cells [2]): 14.50% | selective index (SI) (MCF-7 cell line): 3.82

MIC (Escherichia coli): 5.09^a µM
Structure (SMILES): C[C@H]1c2cccc(O)c2C(=O)C2=C(O)[C@]3(O)C(=O)C(C(N)=O)=C(O)[C@@H](N(C)C)[C@@H]3[C@@H](O)[C@@H]21 [Doxycyline, reference compound]
MBC (Staphylococcus aureus): 63.0^a µM | MBC (Escherichia coli): 50.9^a µM

From PMC11110238, “Synthesis of novel carbazole hydrazine-carbothioamide scaffold as potent antioxidant, anticancer and antimicrobial agents” (BMC Chemistry, 2024)
